Measured values taken from publication PMC6152377, “Structure-Activity Relationships of Acyclic Selenopurine Nucleosides as Antiviral Agents” (Molecules : A Journal of Synthetic Chemistry and Natural …, 2017).

Tested on: HSV-1 (strain F, VR-733)
Assay: CPE inhibition antiviral assay, HSV-1
Type: cell-based, herpes simplex virus (HSV)-1
Settings: Human alphaherpesvirus 1, 72 h, inhibition of virus-induced cytopathic effect by 50%, MTT readout, 3 days
Protocol: (§1) All the final compounds 3a–f and 4a–g were assayed for their antiviral activity against several herpes viruses such as HSV-1 (strain F, VR-733), HSV-2 (strain MS, VR-540), VZV (Ellen, VR-1367), and HCMV (Davis, VR-807). Cytotoxicity data were measured in HEL299 (CCL-137) cells as described previously. […] Antiviral activity was measured using a standard cytopathic (CPE) inhibition assay as described before. Briefly, Vero cells in stationary phase were infected with the virus at a multiplicity of infection of 2–4 CCID50 (50% cell culture inhibitory dose) per each well of 96-well plates. After 2 h of adsorption at 37 °C, the liquid was aspirated and 100 μL of Dulbeco’s modified eagle’s media (DMEM)/2% fetal bovine serum (FBS) containing a compound was applied to each well in duplicate for each concentration and further incubated for 3 days. Antiviral activity was measured by MTT assay and expressed as the EC50. Cytocidal assay was performed as a control experiment for the antiviral assay. It was carried out simultaneously with the antiviral assay described above using mock instead of virus for infection, and cell viability was measured by MTT assay. The concentration of the compound responsible for 50% reduction of cell growth was calculated and expressed as CC50.

Structure (SMILES)	EC50
Nc1nc2c(ncn2COCCO)c(=O)[nH]1 [Compound 1, acyclovir, reference compound]	0.66 µM
Nc1nc(O)c2ncn(COC(CO)CO)c2n1 [Compound 2, ganciclovir, reference compound]	0.9 µM
O=c1[nH]cnc2c1ncn2C[Se]CCO [Compound 3a, 9-((2-Hydroxyethylselanyl)methyl)-1H-purin-6-(9H)-one]	> 100 µM
CNc1ncnc2c1ncn2C[Se]CCO [Compound 3b, 2-((6-(Methylamino)-9H-purin-9-yl)methylselanyl) ethanol]	> 100 µM
Nc1ncnc2c1ncn2C[Se]CCO [Compound 3c, 2-((6-Amino-9H-purin-9-yl)methylselanyl)ethanol]	> 100 µM
O=c1[nH]cnc2c1ncn2C[Se]C(CO)CO [Compound 3d, 9-((1,3-Dihydroxypropan-2-ylselanyl)methyl)-1H purin-6(9H)-one]	> 100 µM
CNc1ncnc2c1ncn2C[Se]C(CO)CO [Compound 3e, 2-((6-(Methylamino)-9H-purin-9-yl)methylselanyl)propane-1,3-diol]	> 100 µM

Tested on: VZV (Ellen, VR-1367)
Assay: CPE inhibition antiviral assay, VZV
Type: cell-based, varicella-zoster virus (VZV)
Settings: Human alphaherpesvirus 3; inhibition of virus-induced cytopathic effect by 50%; strain Ellen; MTT readout
Protocol: as §1

Structure (SMILES)	EC50
Nc1nc2c(ncn2COCCO)c(=O)[nH]1 [Compound 1, acyclovir, reference compound]	6.4 µM
Nc1nc(O)c2ncn(COC(CO)CO)c2n1 [Compound 2, ganciclovir, reference compound]	11.1 µM
O=c1[nH]cnc2c1ncn2C[Se]CCO [Compound 3a, 9-((2-Hydroxyethylselanyl)methyl)-1H-purin-6-(9H)-one]	> 100 µM
CNc1ncnc2c1ncn2C[Se]CCO [Compound 3b, 2-((6-(Methylamino)-9H-purin-9-yl)methylselanyl) ethanol]	> 100 µM
Nc1ncnc2c1ncn2C[Se]CCO [Compound 3c, 2-((6-Amino-9H-purin-9-yl)methylselanyl)ethanol]	> 100 µM
O=c1[nH]cnc2c1ncn2C[Se]C(CO)CO [Compound 3d, 9-((1,3-Dihydroxypropan-2-ylselanyl)methyl)-1H purin-6(9H)-one]	> 100 µM
CNc1ncnc2c1ncn2C[Se]C(CO)CO [Compound 3e, 2-((6-(Methylamino)-9H-purin-9-yl)methylselanyl)propane-1,3-diol]	> 100 µM

Tested on: not listed separately
Assay: Cytotoxicity (cytocidal) assay, MTT
Type: cell-based
Settings: human, 50% reduction of cell viability, HEL299 cells, mock infection
Protocol: as §1

Structure (SMILES)	CC50 at 3 days
O=c1[nH]cnc2c1ncn2C[Se]CCO [Compound 3a, 9-((2-Hydroxyethylselanyl)methyl)-1H-purin-6-(9H)-one]	> 100 µM
CNc1ncnc2c1ncn2C[Se]CCO [Compound 3b, 2-((6-(Methylamino)-9H-purin-9-yl)methylselanyl) ethanol]	> 100 µM
Nc1ncnc2c1ncn2C[Se]CCO [Compound 3c, 2-((6-Amino-9H-purin-9-yl)methylselanyl)ethanol]	> 100 µM
O=c1[nH]cnc2c1ncn2C[Se]C(CO)CO [Compound 3d, 9-((1,3-Dihydroxypropan-2-ylselanyl)methyl)-1H purin-6(9H)-one]	> 100 µM
CNc1ncnc2c1ncn2C[Se]C(CO)CO [Compound 3e, 2-((6-(Methylamino)-9H-purin-9-yl)methylselanyl)propane-1,3-diol]	> 100 µM

Same assay, conditions: human, HEL299 (CCL-137) cells, mock-infected, 50% reduction of cell viability, mock infection

Structure (SMILES)	CC50 at 3 days
Nc1nc(O)c2ncn(COC(CO)CO)c2n1 [Compound 2, ganciclovir, reference compound]	> 100 µM

Tested on: HCMV (Davis, VR-807)
Assay: CPE inhibition antiviral assay, HCMV
Type: cell-based, human cytomegalovirus (HCMV)
Settings: Human betaherpesvirus 5; inhibition of virus-induced cytopathic effect by 50%; strain Davis; MTT readout
Protocol: as §1

Structure (SMILES)	EC50
Nc1nc2c(ncn2COCCO)c(=O)[nH]1 [Compound 1, acyclovir, reference compound]	18.9 µM
Nc1nc(O)c2ncn(COC(CO)CO)c2n1 [Compound 2, ganciclovir, reference compound]	2.14 µM
O=c1[nH]cnc2c1ncn2C[Se]CCO [Compound 3a, 9-((2-Hydroxyethylselanyl)methyl)-1H-purin-6-(9H)-one]	> 100 µM
CNc1ncnc2c1ncn2C[Se]CCO [Compound 3b, 2-((6-(Methylamino)-9H-purin-9-yl)methylselanyl) ethanol]	> 100 µM
Nc1ncnc2c1ncn2C[Se]CCO [Compound 3c, 2-((6-Amino-9H-purin-9-yl)methylselanyl)ethanol]	> 100 µM
O=c1[nH]cnc2c1ncn2C[Se]C(CO)CO [Compound 3d, 9-((1,3-Dihydroxypropan-2-ylselanyl)methyl)-1H purin-6(9H)-one]	> 100 µM
CNc1ncnc2c1ncn2C[Se]C(CO)CO [Compound 3e, 2-((6-(Methylamino)-9H-purin-9-yl)methylselanyl)propane-1,3-diol]	> 100 µM

Tested on: HSV-2 (strain MS, VR-540)
Assay: CPE inhibition antiviral assay, HSV-2
Type: cell-based
Settings: Human alphaherpesvirus 2, 72 h, inhibition of virus-induced cytopathic effect by 50%, MTT readout, 3 days
Protocol: as §1

Structure (SMILES)	EC50
Nc1nc2c(ncn2COCCO)c(=O)[nH]1 [Compound 1, acyclovir, reference compound]	1.02 µM
Nc1nc(O)c2ncn(COC(CO)CO)c2n1 [Compound 2, ganciclovir, reference compound]	1.4 µM
O=c1[nH]cnc2c1ncn2C[Se]CCO [Compound 3a, 9-((2-Hydroxyethylselanyl)methyl)-1H-purin-6-(9H)-one]	> 100 µM
CNc1ncnc2c1ncn2C[Se]CCO [Compound 3b, 2-((6-(Methylamino)-9H-purin-9-yl)methylselanyl) ethanol]	> 100 µM
Nc1ncnc2c1ncn2C[Se]CCO [Compound 3c, 2-((6-Amino-9H-purin-9-yl)methylselanyl)ethanol]	> 100 µM
O=c1[nH]cnc2c1ncn2C[Se]C(CO)CO [Compound 3d, 9-((1,3-Dihydroxypropan-2-ylselanyl)methyl)-1H purin-6(9H)-one]	> 100 µM
CNc1ncnc2c1ncn2C[Se]C(CO)CO [Compound 3e, 2-((6-(Methylamino)-9H-purin-9-yl)methylselanyl)propane-1,3-diol]	> 100 µM

Tested on: not given
Assay: not given
Settings: not given

Structure (SMILES)	melting point
O=c1[nH]cnc2c1ncn2C[Se]CCO [Compound 3a, 9-((2-Hydroxyethylselanyl)methyl)-1H-purin-6-(9H)-one]	225 to 227 °C
CNc1ncnc2c1ncn2C[Se]CCO [Compound 3b, 2-((6-(Methylamino)-9H-purin-9-yl)methylselanyl) ethanol]	171 to 173 °C
Nc1ncnc2c1ncn2C[Se]CCO [Compound 3c, 2-((6-Amino-9H-purin-9-yl)methylselanyl)ethanol]	175 to 177 °C
CNc1ncnc2c1ncn2C[Se]C(CO)CO [Compound 3e, 2-((6-(Methylamino)-9H-purin-9-yl)methylselanyl)propane-1,3-diol]	180 to 183 °C
